Measurements reported in patent publication US12661342B2, “Heteroaryl compounds and therapeutic uses thereof in conditions associated with the alteration of the activity of beta-glucocerebrosidase” (GT GAIN THERAPEUTICS SA, priority 2019, dated 2026).

Biological target: T1, β-glucocerebrosidase (Homo sapiens, UniProt P04062, L483P)
T1 construct: host or cells: human Gaucher disease patient fibroblasts GM08760A
T1 sequence (P04062 40-536 L483P): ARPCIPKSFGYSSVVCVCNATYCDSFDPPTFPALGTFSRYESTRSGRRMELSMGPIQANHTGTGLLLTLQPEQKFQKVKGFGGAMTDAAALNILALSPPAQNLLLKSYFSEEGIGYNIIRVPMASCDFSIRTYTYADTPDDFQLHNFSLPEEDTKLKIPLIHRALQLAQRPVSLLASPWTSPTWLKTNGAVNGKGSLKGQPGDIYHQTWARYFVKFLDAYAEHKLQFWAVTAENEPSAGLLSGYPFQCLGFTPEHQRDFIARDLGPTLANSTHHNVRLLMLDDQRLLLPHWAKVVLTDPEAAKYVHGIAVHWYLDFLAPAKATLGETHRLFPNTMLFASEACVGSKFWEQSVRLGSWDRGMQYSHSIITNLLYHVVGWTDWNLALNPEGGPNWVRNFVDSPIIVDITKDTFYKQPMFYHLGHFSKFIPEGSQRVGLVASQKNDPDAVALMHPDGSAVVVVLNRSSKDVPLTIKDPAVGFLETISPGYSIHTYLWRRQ
Experiment: Enhancement of β-glucocerebrosidase activity measured in Gaucher disease fibroblasts (4-MU-β-D-glucopyranoside substrate, intact cells)
Format: cell-based
Set-up: key: Increase in comparison with non-treated of >2.0 fold is shown as A; Increase in comparison with non-treated of >1.7-2.0 fold is shown as B; Increase in comparison with non-treated of 1.2-1.7 fold is shown as C; D means that no increase compared with non-treated cells was detected in this method
Details: GBA fibroblasts bearing L444P (GM08760A, homozygous p.L444P); compound at concentrations between 6 and 50 μM; 4 days incubation
Experimental: Human fibroblasts from a patient with Gaucher disease homozygous for p.L444P mutation (GM08760A) were purchased from Coriell Institute for Medical Research (Camden, NJ, USA).
Fibroblasts were seeded at 5×10^3 cells per well in 96-well cell culture plates (Corning, NY, USA) in Dulbecco's Modified Eagle's Media (DMEM) supplemented with 10% of fetal bovine serum (FBS), 1% penicillin/streptomycin (P/S) (Thermo Fisher Scientific, Waltham, MA, USA) and grown at 37° C., 5% CO2 overnight for cell attachment. Subsequently, cells were incubated in the absence or presence of the compounds at the desired concentration for 4 days. After incubation, cells were washed twice with phosphate-buffered saline (PBS) and enzyme activity assay was performed.
β-glucocerebrosidase activity in intact cultured cells was measured by using 4-methylumbelliferyl-β-D-glucopyranoside substrate (Apollo Scientific, UK). Briefly, cells were incubated with 4-MU-β-D-glucopyranoside in 0.1 M acetate buffer pH=4 at 37° C. for 1 hour. The reaction was stopped by adding 200 μL at 100 mM glycine-NaOH pH=10.7. The liberated 4-MU was measured on a GloMax Discover plate reader (Promega, Madison, WI, USA) with and excitation at 340 nm and emission at 460 nm. Enzyme activities were expressed in treated cells as X-fold increase in comparison with non-treated cells (X=1 represents no enhancement).
The capacity of the compounds of the disclosure to produce an increase in enzyme activity in GBA fibroblasts bearing L444P at concentrations between 6 and 50 μM is denoted as follows: • Increase in comparison with non-treated of >2.0 fold is shown as A • Increase in comparison with non-treated of >1.7-2.0 fold is shown as B • Increase in comparison with non-treated of 1.2-1.7 fold is shown as C • D means that no increase compared with non-treated cells was detected in this method • ND means “not determined”

Compound | Range: increase in enzyme activity in comparison with non-treated cells (Enzyme activity assay for exemplified compounds) | Range: increase in enzyme activity in comparison with non-treated cells (Enzyme activity assay for compounds of Examples 33-141)
COc1cccc(Nc2nc(N)c3c(n2)CCN(Cc2ccccc2)C3)c1.Cl [Example 31, 6-Benzyl-N2-(3-methoxyphenyl)-5,6,7,8-tetrahydropyrido[4,3-d]pyrimidine-2,4-diamine hydrochloride] | B (Increase in comparison with non-treated of >1.7-2.0 fold is shown as B) | –
Nc1cc(Nc2cccc(O)c2)nc(C(=O)NC2Cc3ccccc3C2)c1 [Example 112, 4-Amino-N-(2,3-dihydro-1H-inden-2-yl)-6-((3-hydroxyphenyl)amino)picolinamide] | – | A (Increase in comparison with non-treated of >2.0 fold is shown as A)
COc1ccc(Nc2nc(N)nc3c2CCN(Cc2ccccc2)C3)cc1 [Example 26, 7-Benzyl-N4-(4-methoxyphenyl)-5,6,7,8-tetrahydropyrido[3,4-d]pyrimidine-2,4-diamine] | C (Increase in comparison with non-treated of 1.2-1.7 fold is shown as C) | –
CN(C(=O)c1nc(N)nc(Nc2cccc(Br)c2)n1)c1ccccc1 [Example 18, 4-Amino-6-((3-bromophenyl)amino)-N-methyl-N-phenyl-1,3,5-triazine-2-carboxamide] | D | –
Cl.Nc1cc(Nc2ccccc2F)nc(C(=O)NC2Cc3ccccc3C2)c1 [Example 139, 4-Amino-N-(2,3-dihydro-1H-inden-2-yl)-6-((2-fluorophenyl)amino)picolinamide hydrochloride] | – | C (Increase in comparison with non-treated of 1.2-1.7 fold is shown as C)
CN(C(=O)c1cc(N)cc(Nc2cccc(F)c2)n1)C1Cc2ccccc2C1 [Example 107, 4-Amino-N-(2,3-dihydro-1H-inden-2-yl)-6-((3-fluorophenyl)amino)-N-methylpicolinamide] | – | C (Increase in comparison with non-treated of 1.2-1.7 fold is shown as C)
Cc1ccc(Nc2nc(N)cc(C(=O)N3CCN(c4ccccc4)CC3)n2)cc1 [Example 3, (6-Amino-2-(p-tolylamino)pyrimidin-4-yl)(4-phenylpiperazin-1-yl)methanone] | C (Increase in comparison with non-treated of 1.2-1.7 fold is shown as C) | –
Nc1cc(Nc2cccc3c2OCO3)nc(C(=O)NC2Cc3ccccc3C2)c1 [Example 89, 4-Amino-6-(benzo[d][1,3]dioxol-4-ylamino)-N-(2,3-dihydro-1H-inden-2-yl)picolinamide] | – | C (Increase in comparison with non-treated of 1.2-1.7 fold is shown as C)
CN(C(=O)c1cc(N)nc(Nc2ccccc2O)c1)C1Cc2ccccc2C1 [Example 44, 2-Amino-N-(2,3-dihydro-1H-inden-2-yl)-6-((2-hydroxyphenyl)amino)-N-methyl-isonicotinamide] | – | C (Increase in comparison with non-treated of 1.2-1.7 fold is shown as C)
CN(C(=O)c1cc(N)cc(Nc2ccccc2F)n1)C1Cc2ccccc2C1.Cl [Example 132, 4-Amino-N-(2,3-dihydro-1H-inden-2-yl)-6-((2-fluorophenyl)amino)-N-methylpicolinamide hydrochloride] | – | C (Increase in comparison with non-treated of 1.2-1.7 fold is shown as C)
Nc1cc(Nc2cccc3c2OCO3)cc(C(=O)NC2Cc3ccccc3C2)n1 [Example 123, 6-Amino-4-(benzo[d][1,3]dioxol-4-ylamino)-N-(2,3-dihydro-1H-inden-2-yl)picolinamide] | – | C (Increase in comparison with non-treated of 1.2-1.7 fold is shown as C)
